Laboratory results from ChEMBL document CHEMBL1201862, “PubChem BioAssay data set” (2004).
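Growth conditions: 96-well plates. Treatment: test compound, 48 hours, 5 concentrations. Analysis: linear interpolation between bracketing concentrations; unreached endpoints set to highest concentration. The concentration for 50% growth inhibition is given as GI50.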 Active and inactive are the calls of the source. No stated cut-off is given here; in the data, active = GI50 up to about 1.1 µM and inactive = higher.

Key:
Assay in all cases: DTP human tumour cell line panel, 48 h
[1] = test system: MCF7
[2] = test system: HL-60
[3] = test system: Malme-3M
[4] = test system: LOX IMVI
[5] = test system: SF-295
[6] = test system: A498
[7] = test system: HOP-92
[8] = test system: TK-10
[9] = test system: NCI-H226
[10] = test system: SK-MEL-28
[11] = test system: RPMI-8226
[12] = test system: COLO 205
[13] = test system: HT-29
[14] = test system: HCT-116
[15] = test system: MDA-N
[16] = test system: NCI-H23
[17] = test system: CCRF-CEM
[18] = test system: MOLT-4
[19] = test system: OVCAR-3
[20] = test system: SNB-19
[21] = test system: ACHN
[22] = test system: SR
[23] = test system: SW-620
[24] = test system: SN12C
[25] = test system: UACC-62
[26] = test system: OVCAR-5
[27] = test system: EKVX
[28] = test system: U-251
[29] = test system: SF-268
[30] = test system: UO-31
[31] = test system: IGROV-1
[32] = test system: A549
[33] = test system: HCC 2998
[34] = test system: HCT-15
[35] = test system: NCI-H460
[36] = test system: DU-145
[37] = test system: M14
[38] = test system: 786-0
[39] = test system: OVCAR-8
[40] = test system: T47D
[41] = test system: PC-3
[42] = test system: OVCAR-4
[43] = test system: NCI/ADR-RES
[44] = test system: MDA-MB-435
[45] = test system: BT-549
[46] = test system: K562
[47] = test system: SNB-75
[48] = test system: SK-OV-3
[49] = test system: MDA-MB-231
[50] = test system: SK-MEL-5
[51] = test system: HOP-62
[52] = test system: UACC-257
[53] = test system: RXF 393
[54] = test system: SK-MEL-2
[55] = test system: KM12
[56] = test system: NCI-H522
[57] = test system: CAKI-1
[58] = test system: Hs-578T

## O=C(O)C1SCCS1
[1]
  GI50: > 100 µM (inactive)
[2]
  GI50: > 100 µM (inactive)
[3]
  GI50: > 100 µM (inactive)
[4]
  GI50: > 100 µM (inactive)
[5]
  GI50: > 100 µM (inactive)
[6]
  GI50: > 100 µM (inactive)
[7]
  GI50: > 100 µM (inactive)
[8]
  GI50: > 100 µM (inactive)
[9]
  GI50: > 100 µM (inactive)
[10]
  GI50: > 100 µM (inactive)
[11]
  GI50: > 100 µM (inactive)
[12]
  GI50: > 100 µM (inactive)
[13]
  GI50: > 100 µM (inactive)
[14]
  GI50: > 100 µM (inactive)
[15]
  GI50: > 100 µM (inactive)
[16]
  GI50: > 100 µM (inactive)
[17]
  GI50: > 100 µM (inactive)
[18]
  GI50: > 100 µM (inactive)
[19]
  GI50: > 100 µM (inactive)
[20]
  GI50: > 100 µM (inactive)
[21]
  GI50: > 100 µM (inactive)
[22]
  GI50: > 100 µM (inactive)
[23]
  GI50: > 100 µM (inactive)
[24]
  GI50: > 100 µM (inactive)
[25]
  GI50: > 100 µM (inactive)
[26]
  GI50: > 100 µM (inactive)
[27]
  GI50: > 100 µM (inactive)
[28]
  GI50: > 100 µM (inactive)
[29]
  GI50: > 100 µM (inactive)
[30]
  GI50: > 100 µM (inactive)
[31]
  GI50: > 100 µM (inactive)
[32]
  GI50: > 100 µM (inactive)
[33]
  GI50: > 100 µM (inactive)
[34]
  GI50: > 100 µM
[35]
  GI50: > 100 µM (inactive)
[36]
  GI50: > 100 µM (inactive)
[37]
  GI50: > 100 µM (inactive)
[38]
  GI50: > 100 µM (inactive)
[39]
  GI50: > 100 µM (inactive)
[40]
  GI50: > 100 µM (inactive)
[41]
  GI50: > 100 µM (inactive)
[42]
  GI50: 31.8 µM (inactive)
[43]
  GI50: > 100 µM (inactive)
[44]
  GI50: > 100 µM (inactive)
[45]
  GI50: > 100 µM (inactive)
[46]
  GI50: > 100 µM (inactive)
[47]
  GI50: > 100 µM (inactive)
[48]
  GI50: > 100 µM (inactive)
[49]
  GI50: > 100 µM (inactive)
[50]
  GI50: > 100 µM (inactive)
[51]
  GI50: > 100 µM (inactive)
[52]
  GI50: > 100 µM (inactive)

## COc1ccc(Cc2nc3cc(C(F)(F)F)ccc3n2CCCN(C)C)cc1
[53]
  GI50: 14.7 µM (inactive)
[1]
  GI50: 17.9 µM (inactive)
[2]
  GI50: 11.8 µM (inactive)
[3]
  GI50: 13.7 µM (inactive)
[4]
  GI50: 19.8 µM (inactive)
[5]
  GI50: 19.7 µM (inactive)
[6]
  GI50: 17.3 µM (inactive)
[7]
  GI50: 26.5 µM (inactive)
[8]
  GI50: 20.7 µM (inactive)
[9]
  GI50: 36.1 µM (inactive)
[54]
  GI50: 19 µM (inactive)
[10]
  GI50: 18 µM (inactive)
[55]
  GI50: 16.7 µM (inactive)
[12]
  GI50: 18 µM (inactive)
[13]
  GI50: 18.5 µM (inactive)
[16]
  GI50: 15.7 µM (inactive)
[56]
  GI50: 14.8 µM (inactive)
[17]
  GI50: 22 µM (inactive)
[18]
  GI50: 2.27 µM (inactive)
[19]
  GI50: 17.3 µM (inactive)
[20]
  GI50: 27.6 µM (inactive)
[21]
  GI50: 27.2 µM (inactive)
[57]
  GI50: 18.2 µM (inactive)
[23]
  GI50: 20.2 µM (inactive)
[25]
  GI50: 17.7 µM (inactive)
[26]
  GI50: 22.9 µM (inactive)
[27]
  GI50: 23.6 µM (inactive)
[28]
  GI50: 17.1 µM (inactive)
[29]
  GI50: 16.8 µM (inactive)
[30]
  GI50: 0.246 µM (active)
[31]
  GI50: 28 µM (inactive)
[32]
  GI50: 17.3 µM (inactive)
[58]
  GI50: 17.5 µM (inactive)
[33]
  GI50: 3.93 µM (inactive)
[34]
  GI50: 20 µM
[35]
  GI50: 20.3 µM (inactive)
[36]
  GI50: 19.2 µM (inactive)
[37]
  GI50: 14.7 µM (inactive)
[39]
  GI50: 30.6 µM (inactive)
[40]
  GI50: 15.7 µM (inactive)
[41]
  GI50: 22.9 µM (inactive)
[42]
  GI50: 27.2 µM (inactive)
[43]
  GI50: 14.6 µM (inactive)
[44]
  GI50: 16.1 µM (inactive)
[45]
  GI50: 15.3 µM (inactive)
[46]
  GI50: 14.4 µM (inactive)
[48]
  GI50: 16.7 µM (inactive)
[49]
  GI50: 24 µM (inactive)
[50]
  GI50: 16.2 µM (inactive)
[51]
  GI50: 26 µM (inactive)
[52]
  GI50: 17.1 µM (inactive)
